Test results reported in BindingDB's records for doi:10.1016/s0960-894x(98)00149-8 (University of Bristol, 1999).

Assays:
[1] = target: N-succinyl-diaminopimelate aminotransferase (Escherichia coli); test: Compound was tested for binding affinity against N-Succinyl Diaminopimelic Acid Aminotransferase from Escherichia coli
[2] = target: N-succinyl-diaminopimelate aminotransferase (Escherichia coli); test: as above; remark: listed apart in the source
[3] = target: N-succinyl-diaminopimelate aminotransferase (Escherichia coli); test: Compound was tested for 50% inhibition of N-Succinyl Diaminopimelic Acid Aminotransferase (DAP-AT) from Escherichia coli.

Row | SMILES | IC50 [1] [µM] | Ki [2] [µM] | IC50 [3] [µM]
1 | NNC(CCC[C@H](NC(=O)CCC(=O)O)C(=O)O)C(=O)O (stereo partly drawn) [(S)-2-(3-Carboxy-propionylamino)-6-hydrazino-heptanedioic acid] | 0.5 | 0.022 | 
2 | CC(=O)N[C@@H](Cc1ccccc1)C(=O)N[C@@H](CCCC(=O)C(=O)O)C(=O)O [dilithium 2-[1-methylcarboxamido-2-phenyl-(1S)-ethylcarboxamido]-6-oxo-(2S)-heptanedioate] | > 50000 |  | 
3 | CC(=O)N[C@@H](CC(=O)O)C(=O)N[C@@H](CCCC(NN)C(=O)O)C(=O)O (stereo partly drawn) [(S)-2-((S)-2-Acetylamino-3-carboxy-propionylamino)-6-hydrazino-heptanedioic acid] |  | 0.169 | 0.8
